# Patent US20060165739A1, “Alcohol-free microemulsion composition” (Mary Kay Inc., priority 2005, published 2006)
# Read-outs that look alike come from different tables or passages of the source.
# Legend:
# Type in all cases: physicochemical
# [1] = Optimum salinity (S*) of co-oil/sebum oil mixtures in phase behavior studies with the AOT/sorbitan monooleate/hexylglucocide system; conditions: NaCl
# Method: Methods: Phase behavior studies were performed using equal volume of water and oil (or sebum/co-oil mixtures), giving a water/oil ratio (WOR) equal to one. Preliminary studies were conducted to determine preferred formulations and salinity. […] In another non-limiting aspect, a preferred salinity (S*) for this composition was 0.5% NaCl. As noted throughout this document and contemplated by the inventors, these concentrations can be varied. Additionally, the ingredients can also vary. For example, the surfactants, hydrophobic and hydrophilic linkers, co-oils, and hydrotropes that are discussed throughout this document and known to those of ordinary skill in the art can be used with the present invention.
# Stock solutions of AOT, hexylglucocide, and sorbitan monooleate at the selected weight ratio were prepared at different total surfactant/linker concentrations ranging from 14.19% to 56.06% wt. The phase studies were carried out in 16×125 mm flat-bottomed tubes; 2.5 mL surfactant solution was added, followed by the addition of co-oil, then sebum oil. The total volume of co-oil and sebum oil required is equivalent to the amount of water present in the 2.5 mL surfactant solution; this is to keep WOR equal to one. The fraction of sebum oil in the oil mixtures is varied from zero (100% vol. co-oil) to one (100% vol. sebum oil). The prepared samples were gently shaken once a day for 3 days and left to equilibrate at room temperature for 2 weeks. Phase diagrams (fish diagrams) were constructed by plotting the total surfactant/linker concentration as a function of the sebum fraction in oil. The microemulsion phase (Type I, II, III, and IV) were obtained by visual observation. The effect of salinity (0.5%, 1.5%, and 3% wt. NaCl) and co-oil on the phase behavior was investigated.
# (§1) Formulating microemulsions requires the combination of variables that will provide a middle phase microemulsion. Salager et al. (1979) proposed a semi empirical equation that relates the different formulation variables: Ln(S*)=k(EACN)+f(A)−σ+αTΔT Where S* is an optimum salinity, or electrolyte concentration; k is a constant, normally, between 0.1 to 0.17, and EACN is the equivalent alkane carbon number for nonlinear hydrocarbon (e.g. triglycerides). Although preferred salinity concentrations may exist, the inventors contemplate that salinity levels can and will vary. For example, a person of ordinary skill in the art will recognize that salinity levels may vary depending on the desired effects of a given product, protocol, or individual characteristics of a user of the product. For linear hydrocarbon, alkane carbon number (ACN) is applied. The EACN is estimated based on the optimum salinity obtained in the inventors' formulation studies. The higher the optimum salinity, the more the hydrophobicity or EACN of the oil. The effect of alcohol or additives is noted by f(A), σ is a function of the type of the surfactant, α is a constant, and T is the temperature of the system. However, in this study, alcohol is not included and the temperature of the system is constant.
# [2] = Fish diagram phase study: surfactant concentration (C) and sebum fraction in oil (F) where Type IV microemulsion forms; conditions: co-oil with artificial sebum, WOR=1
# Method: Methods: Phase behavior studies were performed using equal volume of water and oil (or sebum/co-oil mixtures), giving a water/oil ratio (WOR) equal to one. Preliminary studies were conducted to determine preferred formulations and salinity. […] In another non-limiting aspect, a preferred salinity (S*) for this composition was 0.5% NaCl. As noted throughout this document and contemplated by the inventors, these concentrations can be varied. Additionally, the ingredients can also vary. For example, the surfactants, hydrophobic and hydrophilic linkers, co-oils, and hydrotropes that are discussed throughout this document and known to those of ordinary skill in the art can be used with the present invention. Stock solutions of AOT, hexylglucocide, and sorbitan monooleate at the selected weight ratio were prepared at different total surfactant/linker concentrations ranging from 14.19% to 56.06% wt. The phase studies were carried out in 16×125 mm flat-bottomed tubes; 2.5 mL surfactant solution was added, followed by the addition of co-oil, then sebum oil. The total volume of co-oil and sebum oil required is equivalent to the amount of water present in the 2.5 mL surfactant solution; this is to keep WOR equal to one. The fraction of sebum oil in the oil mixtures is varied from zero (100% vol. co-oil) to one (100% vol. sebum oil). The prepared samples were gently shaken once a day for 3 days and left to equilibrate at room temperature for 2 weeks. Phase diagrams (fish diagrams) were constructed by plotting the total surfactant/linker concentration as a function of the sebum fraction in oil. The microemulsion phase (Type I, II, III, and IV) were obtained by visual observation. The effect of salinity (0.5%, 1.5%, and 3% wt. NaCl) and co-oil on the phase behavior was investigated. The fish tail is observed in the high concentration regime whereas the fish body appears in the low concentration regime. A surfactant concentration 14.19% wt was studied. As discussed throughout this document, however, the surfactant concentration can be varied. At lower surfactant concentrations, slow phase separation kinetics made it difficult to map out the three phase region. The surfactant concentration and the sebum fraction of oil at which the body and tail of the fish meet are denoted by “C” and “F”, respectively. The concentration C for this system, approximately, is 25% wt. surfactant concentration at the fraction F of 0.4, as summarized in Table 4.
# [3] = Equivalent alkane carbon number (EACN) of co-oils
# From the text: as §1
# The EACN of squalene is 24 and isopropyl myristate (IPM) is 13. The EACN for squalane is expected to be close to the value for squalene (˜24).
# [4] = oil mixture 20% co-oil / 80% sebum (vol.)
# [5] = oil mixture 40% co-oil / 60% sebum
# [6] = oil mixture 60% co-oil / 40% sebum
# [7] = oil mixture 80% co-oil / 20% sebum
Concentration (C) of surfactant at which Type IV microemulsion forms ([2]; [NaCl] 0.50%),sebum fraction in oil (F) at which Type IV microemulsion forms ([2]; [NaCl] 0.50%),Concentration (C) of surfactant at which Type IV microemulsion forms ([2]; [NaCl] 1.50%),sebum fraction in oil (F) at which Type IV microemulsion forms ([2]; [NaCl] 1.50%),EACN [3],EACN ([3]; listed as Ethyllaurate (EL)),Concentration (C) of surfactant at which Type IV microemulsion forms ([2]; [NaCl] 3.00%),sebum fraction in oil (F) at which Type IV microemulsion forms ([2]; [NaCl] 3.00%),"sebum fraction in oil (F) at which Type IV microemulsion forms ([2]; [NaCl] 0.50%, listed as squalene)",Structure (SMILES),S* (optimum salinity) ([1]; 100% co-oil / 0% sebum),"S* (optimum salinity) [1, 4]","S* (optimum salinity) [1, 5]","S* (optimum salinity) [1, 6]","S* (optimum salinity) [1, 7]","S* (optimum salinity) ([1]; oil mixture 20% co-oil / 80% sebum (vol.), listed as Isopropyl Myristate (IPM))"
25 % wt.,0.4,38 % wt.,0.02,< 13,<13,,,,"CCCCCCCCCCCC(=O)OCC [EL, ethyl laurate]",1-1.5%,<0.5%,<0.5%,<0.5%,0.5-0.7%,
25 % wt.,0.5,38 % wt.,0.175,13,,,,,"CCCCCCCCCCCCCC(=O)OC(C)C [IPM, isopropyl myristate]",3.5%,less than 0.5%,0.5%,0.8%,1.5%,<0.5%
25 % wt.,0.35,35 % wt.,0.2,,,42 % wt.,0.15,,"CC(C)CCCC(C)CCCC(C)CCCCC(C)CCCC(C)CCCC(C)C (centres unmarked) [Squalane, 2,6,10,15,19,23-Hexamethyltetracosane]",,,,,,
~25 % wt.,0.45,,,24,,,,0.4,CC(C)=CCC/C(C)=C/CC/C(C)=C/CC/C=C(\C)CC/C=C(\C)CCC=C(C)C [Squalene],,,,,,
